In ChEMBL document CHEMBL3639235, “Depsipeptides and their therapeutic use” (2014):

Target: Histone deacetylase 1 (Homo sapiens, UniProt Q13547)
Test: Fluorescent Activity Assay: In vitro HDAC assays were performed using a HDAC fluorescent activity assay kit (Biomol, UK) according to the manufacturer's instructions. Compounds were reduced prior to analysis; 1 mM compound was reduced with 30 mM DTT in DMSO overnight at room temperature, protected from light. Reactions were then set up in a 96-well plate. For each reaction 10 ul compound (5x required concentration in assay buffer) was mixed with […] diluted HeIa Nuclear Extract (30-fold in assay buffer). Serial dilutions were set up for each compound. Reactions containing HeIa extract only and assay buffer only were also set up. 25 ul diluted Fluor de Lys substrate (100-fold in assay buffer) was added to each reaction, which were then incubated at 37C for 1 hour. The reaction was stopped by addition of 50 ul Fluor de Lys Developer (20-fold dilution in assay buffer, plus TSA diluted 100-fold). The reactions were then incubated at room temperature for 10 minutes before fluorescence was measured.

Histone deacetylase 1, sequence (Q13547 whole entry): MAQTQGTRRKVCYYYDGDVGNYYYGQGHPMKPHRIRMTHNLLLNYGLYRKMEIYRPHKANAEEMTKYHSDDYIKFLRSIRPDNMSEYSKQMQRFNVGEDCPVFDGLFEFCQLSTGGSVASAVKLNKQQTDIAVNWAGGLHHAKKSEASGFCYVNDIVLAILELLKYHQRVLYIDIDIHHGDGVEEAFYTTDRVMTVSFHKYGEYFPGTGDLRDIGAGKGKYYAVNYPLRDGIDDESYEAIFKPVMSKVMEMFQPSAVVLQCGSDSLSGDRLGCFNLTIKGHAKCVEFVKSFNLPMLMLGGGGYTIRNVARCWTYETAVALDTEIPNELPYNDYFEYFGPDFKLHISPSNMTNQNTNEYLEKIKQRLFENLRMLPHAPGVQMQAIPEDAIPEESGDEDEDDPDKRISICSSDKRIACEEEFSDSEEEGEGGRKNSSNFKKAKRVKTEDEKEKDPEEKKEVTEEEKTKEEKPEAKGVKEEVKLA

CC(=O)SCC/C=C/[C@@H]1CC(=O)N[C@H](C(C)C)C(=O)N[C@H](C)C(=O)N[C@H](C(C)C)[C@@H](O)CC(=O)O1
IC50: 21.6 nM
